The Kinase Knowledgebase extract (Sharma et al. 2016)
Several values for one entry are separate records, joined by “and”; a condition that tells them apart may be missing. Equal values may be shown once. One block for each compound: values may come before it.

How the values were obtained:
MAPK14 [1] = target: MAPK14 (UniProt Q16539); test: MAPK14 Binding Inhibition
MAPK14 [2] = target: MAPK14 (UniProt Q16539); test: p38 Kinase Inhibition
MAPK14 (human) [3] = target: MAPK14 (human) (UniProt Q16539); test: p38-mediated TNF-alpha Inhibition (THP1 Cells)
Chain of MAPK14 (human) (Q16539 whole entry, looked up): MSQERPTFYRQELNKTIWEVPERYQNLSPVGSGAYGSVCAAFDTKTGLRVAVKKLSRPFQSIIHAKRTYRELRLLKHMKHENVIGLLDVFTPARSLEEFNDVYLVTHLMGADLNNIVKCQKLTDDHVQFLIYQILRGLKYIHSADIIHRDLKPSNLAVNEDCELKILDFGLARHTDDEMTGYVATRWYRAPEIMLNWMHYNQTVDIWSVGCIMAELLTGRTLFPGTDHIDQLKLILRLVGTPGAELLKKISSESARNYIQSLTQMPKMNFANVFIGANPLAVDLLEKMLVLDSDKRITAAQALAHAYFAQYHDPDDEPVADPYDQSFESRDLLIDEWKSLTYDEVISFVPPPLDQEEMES

[4] = tested on: MAPK14 (sprague-dawley rat); test: p38-mediated TNF-alpha Inhibition (Sprauge-Dawley Rats); settings: dose or concentration not given here
EGFR (human) [5] = target: EGFR (human) (UniProt P00533); settings: A431 epidermoid carcinoma
Chain of EGFR (human) (P00533 whole entry, looked up): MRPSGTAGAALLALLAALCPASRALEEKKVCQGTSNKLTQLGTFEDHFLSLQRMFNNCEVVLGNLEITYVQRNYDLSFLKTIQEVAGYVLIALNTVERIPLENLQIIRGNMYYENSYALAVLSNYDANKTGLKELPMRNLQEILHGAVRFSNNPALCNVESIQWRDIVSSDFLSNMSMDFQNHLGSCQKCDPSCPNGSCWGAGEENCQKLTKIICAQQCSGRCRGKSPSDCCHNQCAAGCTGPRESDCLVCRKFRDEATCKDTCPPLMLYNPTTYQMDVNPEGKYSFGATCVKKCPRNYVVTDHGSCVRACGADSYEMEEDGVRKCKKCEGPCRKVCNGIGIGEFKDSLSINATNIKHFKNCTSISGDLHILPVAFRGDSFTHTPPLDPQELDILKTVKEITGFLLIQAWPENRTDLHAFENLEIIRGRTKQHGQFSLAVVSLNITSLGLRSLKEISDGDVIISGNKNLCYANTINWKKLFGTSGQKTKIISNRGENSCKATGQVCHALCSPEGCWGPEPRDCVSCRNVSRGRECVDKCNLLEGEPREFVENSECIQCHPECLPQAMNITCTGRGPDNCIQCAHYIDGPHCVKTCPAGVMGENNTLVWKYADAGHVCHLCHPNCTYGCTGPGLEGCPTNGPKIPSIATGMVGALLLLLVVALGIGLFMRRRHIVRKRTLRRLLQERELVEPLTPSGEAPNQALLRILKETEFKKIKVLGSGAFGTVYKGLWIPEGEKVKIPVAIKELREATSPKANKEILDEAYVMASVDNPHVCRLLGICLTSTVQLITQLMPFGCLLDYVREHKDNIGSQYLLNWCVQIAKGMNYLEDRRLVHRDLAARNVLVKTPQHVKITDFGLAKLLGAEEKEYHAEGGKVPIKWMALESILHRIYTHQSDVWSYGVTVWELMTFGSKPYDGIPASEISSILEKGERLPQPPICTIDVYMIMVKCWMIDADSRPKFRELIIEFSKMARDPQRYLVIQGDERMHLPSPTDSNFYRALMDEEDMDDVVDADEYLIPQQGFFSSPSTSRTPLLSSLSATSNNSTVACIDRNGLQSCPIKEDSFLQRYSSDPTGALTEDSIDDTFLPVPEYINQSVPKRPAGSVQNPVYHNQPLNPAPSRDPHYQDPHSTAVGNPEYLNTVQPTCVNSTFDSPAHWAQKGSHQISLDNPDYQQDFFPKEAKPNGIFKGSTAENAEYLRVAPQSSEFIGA

MAPK14 (murine) = test: TNF-alpha Inhibition (In vivo Studies)
MAPK14 (OF1 mice) = test: P38-mediated TNF-alpha Inhibition (OF1 Mice)
MAPK14 (human) [6] = target: MAPK14 (human) (UniProt Q16539); test: p38 --- IL-1 Inhibition (whole blood cells)
MAPK14 [7] = target: MAPK14 (UniProt Q16539); test: p38-mediated EGFR Peptide Phosphorylation Inhibition
MAPK14 (human) [8] = target: MAPK14 (human) (UniProt Q16539); test: TNF-alpha Inhibition (PBMC)
MAPK14 (human) [9] = target: MAPK14 (human) (UniProt Q16539); test: TNF-alpha Inhibition (Human Whole Blood); settings: blood cells
EGFR [10] = target: EGFR (UniProt P00533)
Chain of EGFR (P00533 whole entry, looked up): as above

MAPK14 (rat) [11] = settings: dose or concentration not given here
MAPK14 [12] = target: MAPK14 (UniProt Q16539)
MAPK14 [13] = target: MAPK14 (UniProt Q16539); test: p38-alpha2 Inhibition (E. coli); settings: concentration not given here
EGFR [14] = target: EGFR (UniProt P00533); remark: listed apart in the source
MAPK14 [15] = target: MAPK14 (UniProt Q16539); test: p38 Inhibition (Phosphorylation of EGF Receptor Peptide)
[16] = tested on: MAPK14, Q16539 [p38 (T106M) Inhibition]; test: p38 (T106M) Inhibition
Chain of MAPK14, Q16539 [p38 (T106M) Inhibition] (Q16539 whole entry, looked up, stated change not applied): as the sequence (Q16539 whole entry, looked up) above

MAPK14 (human) [17] = target: MAPK14 (human) (UniProt Q16539); test: Activation of p38 in Human Platelets
PIK3CA = PIK3CA (UniProt P42336)
[18] = tested on: CDK2 (sprague-dawley rat); settings: dose or concentration not given here
EGFR (human) [19] = target: EGFR (human) (UniProt P00533); settings: A431; concentration not given here
[20] = target: EGFR (Human), P00533 [T790M/L858R]; settings: h1975
EGFR [21] = target: EGFR (UniProt P00533); remark: listed apart in the source
EGFR [22] = target: EGFR (UniProt P00533); remark: listed apart in the source
EGFR [23] = target: EGFR (UniProt P00533); remark: listed apart in the source
MAPK14 (human) [24] = target: MAPK14 (human) (UniProt Q16539); test: p38-mediated IL-1 Inhibition (LPS-Stimulated PBMCs); settings: pbmc
MAPK14 (human) [25] = target: MAPK14 (human) (UniProt Q16539); test: p38-mediated TNF-Inhibition (LPS-Stimulated PBMCs); settings: pbmc
CDK2 (human) [26] = target: CDK2 (human) (UniProt P24941); test: Enzyme Assay
PIK3CA (human) = PIK3CA (human) (UniProt P42336); test: Enzyme Assay
PIK3CB (Human) = PIK3CB (Human) (UniProt P42338); test: Enzyme Assay
PIK3CG (human) = PIK3CG (human) (UniProt P48736); test: Enzyme Assay
Chain of PIK3CG (human) (P48736 whole entry, looked up): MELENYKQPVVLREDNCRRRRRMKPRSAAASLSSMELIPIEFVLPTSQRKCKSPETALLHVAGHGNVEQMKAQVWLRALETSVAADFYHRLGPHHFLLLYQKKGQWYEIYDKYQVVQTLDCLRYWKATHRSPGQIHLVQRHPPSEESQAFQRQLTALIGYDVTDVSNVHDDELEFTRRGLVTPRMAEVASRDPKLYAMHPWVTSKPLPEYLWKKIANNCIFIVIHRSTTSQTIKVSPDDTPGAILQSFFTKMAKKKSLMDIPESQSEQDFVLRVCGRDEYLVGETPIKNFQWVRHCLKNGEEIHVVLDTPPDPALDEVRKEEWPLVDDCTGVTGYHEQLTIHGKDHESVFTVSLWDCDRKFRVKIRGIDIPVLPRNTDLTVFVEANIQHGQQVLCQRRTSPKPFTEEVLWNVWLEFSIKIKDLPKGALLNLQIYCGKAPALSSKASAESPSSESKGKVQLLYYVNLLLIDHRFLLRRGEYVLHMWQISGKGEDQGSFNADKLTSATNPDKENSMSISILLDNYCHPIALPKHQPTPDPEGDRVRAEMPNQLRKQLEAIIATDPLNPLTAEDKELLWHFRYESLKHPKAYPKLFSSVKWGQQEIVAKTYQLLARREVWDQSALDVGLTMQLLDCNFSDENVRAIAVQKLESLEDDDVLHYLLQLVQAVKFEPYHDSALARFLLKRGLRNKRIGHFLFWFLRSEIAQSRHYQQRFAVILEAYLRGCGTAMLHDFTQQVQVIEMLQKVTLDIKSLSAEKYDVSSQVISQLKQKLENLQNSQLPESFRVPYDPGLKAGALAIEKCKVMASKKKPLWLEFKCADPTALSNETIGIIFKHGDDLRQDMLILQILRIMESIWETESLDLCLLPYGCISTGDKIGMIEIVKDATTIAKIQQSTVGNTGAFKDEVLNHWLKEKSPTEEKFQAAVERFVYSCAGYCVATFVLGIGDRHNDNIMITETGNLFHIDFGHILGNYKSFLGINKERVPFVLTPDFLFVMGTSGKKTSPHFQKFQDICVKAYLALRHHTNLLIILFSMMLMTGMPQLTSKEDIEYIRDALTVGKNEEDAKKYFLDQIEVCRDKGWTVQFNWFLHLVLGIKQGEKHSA

CDK2 (human) [27] = target: CDK2 (human) (UniProt P24941); test: Enzyme Assay; remark: listed apart in the source
CDK2 (human) [28] = target: CDK2 (human) (UniProt P24941); test: Enzyme Assay; remark: listed apart in the source
PIK3CD (Human) [29] = target: PIK3CD (Human) (UniProt O00329); test: Enzyme Assay
Chain of PIK3CD (Human) (O00329 whole entry, looked up): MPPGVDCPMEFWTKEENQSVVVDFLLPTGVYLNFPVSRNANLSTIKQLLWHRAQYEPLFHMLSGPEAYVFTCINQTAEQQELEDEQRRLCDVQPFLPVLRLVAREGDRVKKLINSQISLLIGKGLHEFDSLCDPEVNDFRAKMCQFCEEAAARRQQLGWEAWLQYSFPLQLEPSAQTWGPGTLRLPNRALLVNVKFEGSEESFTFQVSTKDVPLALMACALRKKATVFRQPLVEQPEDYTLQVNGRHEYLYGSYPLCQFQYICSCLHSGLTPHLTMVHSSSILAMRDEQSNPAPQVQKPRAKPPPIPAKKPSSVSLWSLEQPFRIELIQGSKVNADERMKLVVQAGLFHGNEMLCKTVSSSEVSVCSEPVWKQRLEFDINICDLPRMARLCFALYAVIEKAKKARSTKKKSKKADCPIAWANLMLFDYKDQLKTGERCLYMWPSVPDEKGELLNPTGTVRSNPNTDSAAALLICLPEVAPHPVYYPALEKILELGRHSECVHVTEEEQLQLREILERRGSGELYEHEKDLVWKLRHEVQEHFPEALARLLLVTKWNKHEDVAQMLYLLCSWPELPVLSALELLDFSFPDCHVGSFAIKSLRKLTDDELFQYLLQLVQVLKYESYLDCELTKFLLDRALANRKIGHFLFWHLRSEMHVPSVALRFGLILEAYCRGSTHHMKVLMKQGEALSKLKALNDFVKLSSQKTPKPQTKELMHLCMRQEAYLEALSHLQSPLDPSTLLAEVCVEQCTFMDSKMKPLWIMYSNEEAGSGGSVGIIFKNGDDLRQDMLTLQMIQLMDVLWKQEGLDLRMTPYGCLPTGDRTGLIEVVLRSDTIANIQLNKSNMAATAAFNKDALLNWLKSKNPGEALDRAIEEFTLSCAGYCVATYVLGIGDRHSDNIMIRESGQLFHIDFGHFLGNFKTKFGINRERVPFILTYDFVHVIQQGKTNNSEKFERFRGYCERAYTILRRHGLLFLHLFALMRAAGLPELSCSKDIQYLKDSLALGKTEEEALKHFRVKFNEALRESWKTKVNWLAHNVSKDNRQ

PIK3CD (Human) [30] = target: PIK3CD (Human) (UniProt O00329); test: Cell-Based Assay; settings: raji
MAPK14 (human) [31] = target: MAPK14 (human) (UniProt Q16539); test: MIP-1 alpha Assay (T cells)
MAPK14 (human) [32] = target: MAPK14 (human) (UniProt Q16539); test: MIP-1 Beta Assay (T cells)
EGFR [33] = target: EGFR (UniProt P00533); remark: listed apart in the source
MAPK14 (Lewis rat) = test: SCW-induced Arthritis (Lewis Rat)
EGFR [34] = target: EGFR (UniProt P00533); remark: listed apart in the source
EGFR [35] = target: EGFR (UniProt P00533); remark: listed apart in the source
MAPK14 (rat) [36] = test: p38-alpha Inhibition (Collagen-Induced Arthritis)
MAPK14 [37] = target: MAPK14 (UniProt Q16539); remark: listed apart in the source
MAPK14 [38] = target: MAPK14 (UniProt Q16539); remark: listed apart in the source
EGFR (human) [39] = target: EGFR (human) (UniProt P00533); settings: a431
CDK2 (human) [40] = target: CDK2 (human) (UniProt P24941); test: Enzyme Assay; remark: listed apart in the source
EGFR (human) [41] = target: EGFR (human) (UniProt P00533); settings: A431
EGFR (Hamster) = EGFR (Hamster) (UniProt P00533); settings: er22

Chain of MAPK14 (Q16539 whole entry, looked up): as the sequence (Q16539 whole entry, looked up) above

IC50 (MAPK14 [1]): < 50 µM
Structure (SMILES): COc1cc(-c2c(-c3ccc(F)cc3)ncn2C2CCNCC2)ccn1

IC50 (MAPK14 [2]): 1.45 µM
IC50 (MAPK14 (human) [3]): 0.17 µM
Structure (SMILES): Nc1c(C(=O)c2cccc(NC=NO)c2)cnn1-c1ccc(F)cc1
inhibition [4]: 76%

IC50 (EGFR (human) [5]): > 100 µM
Structure (SMILES): Cn1c(SSc2c(C(=O)Nc3ccccc3)c3ccc(C(F)(F)F)cc3n2C)c(C(=O)Nc2ccccc2)c2cc(C(F)(F)F)ccc21

Structure (SMILES): Cc1nccc(-c2c(-c3ccc(F)cc3)ncn2C2CCCCC2)n1
ED50 (MAPK14 (murine)): 7.5 mg/kg

Structure (SMILES): CN1CCC(O)(c2nc(-c3ccc(F)cc3)c(-c3ccncc3)s2)CC1
inhibition (MAPK14 (OF1 mice)): 0%

IC50 (MAPK14 (human) [6]): 3 µM
IC50 (MAPK14 [7]): 1.3 µM
Structure (SMILES): O=c1ncn2nc(Sc3ccccc3)ccc2c1-c1c(Cl)cccc1Cl

IC50 (MAPK14 (human) [8]): 0.292 µM
IC50 (MAPK14 (human) [9]): 1.2 µM
Structure (SMILES): C[C@H](Nc1nccc(-c2cc(N3CCOCC3)nnc2-c2cccc(C(F)(F)F)c2)n1)c1ccccc1

IC50 (EGFR [10]): 1.5 µM
Structure (SMILES): COc1cc2ncc(C#N)c(Nc3cc(OC)c(OC)c(OC)c3)c2cc1OC

activity (MAPK14 [12]): 6 nM
Structure (SMILES): COc1cc(N)nc2[nH]c(-c3ccc(F)cc3)c(-c3ccncc3)c12
inhibition (MAPK14 (rat) [11]): 97%

inhibition (MAPK14 [13]): 23%
Structure (SMILES): COC(=O)c1sc(C(C)(C)C)cc1NC(=O)Nc1ccc(C(N)=O)cc1

IC50 (EGFR [14]): 2 µM
Structure (SMILES): O=C(O)c1cc(/C=C/c2cc(O)ccc2O)ccc1O

IC50 (MAPK14 [15]): > 20 µM
Structure (SMILES): O=c1ncn2nc(Sc3ccccc3)ccc2c1-c1ccccc1

inhibition [16]: 0%
Structure (SMILES): Fc1ccc(-c2ncn(C3CCNCC3)c2-c2ccncc2)cc1

phosphorylation (MAPK14 (human) [17]): 254 cpm and 231 cpm
Structure (SMILES): CCCCC/C=C\C/C=C\C/C=C\C/C=C\CCCC(=O)O

Structure (SMILES): O=c1c(O)c(-c2ccc(O)c(O)c2)oc2cc(O)cc(O)c12
IC50 (PIK3CA): 3.8 µM

Structure (SMILES): CN1CC[C@@H](c2c(O)cc(O)c3c(=O)cc(-c4ccccc4Cl)oc23)[C@@H](O)C1
response [18]: 4.2%

inhibition (EGFR (human) [19]): 4%
Structure (SMILES): Oc1cccc(-c2nc3ccc(O)cc3s2)c1

IC50 [20]: > 10 µM
Structure (SMILES): C=CC(=O)NCCN1C(=O)N(Cc2ccccc2)Cc2cnc(Nc3ccc(N4CCN(C)CC4)cc3OC)nc21

IC50 (EGFR [21]): 8.18 µM
Structure (SMILES): CO[C@H]1[C@@H](N(C)C2C=NC=CN2)C[C@@H]2O[C@@]1(C)n1c3ccccc3c3c4c(c5c6ccccc6n2c5c31)C(=O)NC4 (stereo partly drawn)

IC50 (EGFR [22]): > 1.62 µM
Structure (SMILES): O=C(O)CCC1C(=S)Nc2ccccc21 (stereo not drawn)

IC50 (EGFR [23]): > 50 µM
Structure (SMILES): O=C(Nc1cccc(Nc2nccc(-c3cccnc3)n2)c1)c1ccccc1S

Structure (SMILES): O=C1NCN2N=C(Sc3ccccc3Br)C=CC2=C1c1c(Cl)cccc1Cl
IC50 (MAPK14 (human) [24]): 0.24 µM
IC50 (MAPK14 (human) [25]): 0.16 µM

IC50 (CDK2 (human) [26]): 0.0973 µM
IC50 (PIK3CA (human)): 1.06 µM
IC50 (PIK3CB (Human)): 0.759 µM
IC50 (PIK3CG (human)): 1.12 µM
IC50 (CDK2 (human) [27]): 0.769 µM
IC50 (CDK2 (human) [28]): 1.35 µM
Structure (SMILES): CN1CCN(c2ccc(Nc3ncc4cc(C#N)c(=O)n(C5CCCC5)c4n3)cc2)CC1

Structure (SMILES): C[C@H](NC(=O)c1c(N)nn2cccnc12)c1cc2cccc(Cl)c2c(=O)n1CCNS(=O)(=O)C(F)(F)F
IC50 (PIK3CA (human)): 1 to 10 µM
IC50 (PIK3CB (Human)): 1 to 10 µM
IC50 (PIK3CD (Human) [29]): 1 to 10 µM
IC50 (PIK3CG (human)): 0.5 to 1 µM
IC50 (PIK3CD (Human) [30]): 0.01 to 0.1 µM

expression (MAPK14 (human) [31]): 10500 pg/mL and 5700 pg/mL
expression (MAPK14 (human) [32]): 3800 pg/mL and 10400 pg/mL
Structure (SMILES): CC(=NNC(=N)N)c1cc(NC(=O)CCCCCCCCC(=O)Nc2cc(C(C)=NNC(=N)N)cc(C(C)=NNC(=N)N)c2)cc(C(C)=NNC(=N)N)c1

IC50 (EGFR [33]): > 10 µM
Structure (SMILES): O=C(Nc1cc2ccccc2cn1)c1ccccc1NCc1ccncc1

Structure (SMILES): CC1(C(=O)N2CCOCC2)COC(c2nc(-c3ccc(F)cc3)c(-c3ccnc(NC4CC4)n3)[nH]2)OC1 (stereo not drawn)
AUC (MAPK14 (Lewis rat)): 2 and 2.1 and 3.3

IC50 (EGFR [34]): 19 µM
Structure (SMILES): C[C@@]12CCC(=O)c3coc(c31)C(=O)c1cc3c(cc12)C(=O)C=CC3=O

IC50 (EGFR [35]): 2.11 µM
Structure (SMILES): CC[C@@H]1CC(=O)c2c(cc(O)c3c2C(=O)c2cccc(OC)c2C3=O)C1

Structure (SMILES): CN1CCC(O)(c2nc(-c3ccc(F)cc3)c(-c3ccncc3)o2)CC1
ED50 (MAPK14 (rat) [36]): 20 mg/kg/day

IC50 (MAPK14 [37]): < 50 µM
IC50 (MAPK14 [38]): < 50 µM
Structure (SMILES): O=C(CN1CCNCC1)Nc1cccc(Oc2nccc(-c3c(-c4ccc(F)cc4)ncn3C3CCNCC3)n2)c1

IC50 (EGFR (human) [39]): 0.68 µM
Structure (SMILES): COc1cc2cc3ncc(C#N)c(Nc4ccc(F)c(Cl)c4)c3cc2cc1OC

IC50 (CDK2 (human) [26]): 0.072 µM
IC50 (CDK2 (human) [40]): 1.42 µM
Structure (SMILES): COc1cc(F)ccc1-c1cc(Nc2cc(CS(C)(=O)=NC#N)ccn2)ncc1F (stereo not drawn)

IC50 (EGFR (human) [41]): 1.25 µM
Structure (SMILES): Nc1ccc2c(NCc3ccccc3)ncnc2c1

IC50 (EGFR (Hamster)): 9 µM
Structure (SMILES): COC(=O)c1cc(NCc2cc(O)ccc2O)ccc1O
